# Legend:
# velvetleaf [1] = assay: Test Example 4: herbicidal effect by soil treatment (Table 19, symbol M); assay type: in vivo, velvetleaf (Abutilon theophrasti); details: amount of applied herbicide 320 g/ha
# Outline: (§1)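 Three weeks of greenhouse growth at 25° C. to 30° C. followed a uniform surface spray of water-diluted emulsion at a predetermined herbicide amount. Seeds had been sown beforehand under about 1.5 cm of sterilized diluvial soil. Grading followed criteria set out in an earlier test.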
# Chinese sprangletop = assay: Test Example 3: herbicidal effect by foliage application, Wagner pot (Table 18, symbol D); assay type: in vivo, chinese sprangletop (Leptochloa chinensis)
# Outline: (§2)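 Plants were sown in alluvial soil held under 0.1–0.5 cm standing water and grown 14 days in a greenhouse at 25–30 °C. An emulsifiable formulation, water-diluted to the set dose, was then sprayed onto the foliage, and effects were scored three weeks later using previously defined criteria.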
# late watergrass [2] = assay: Test Example 1: herbicidal activity, application before weed generation under submerged conditions (Table 16, symbol A); assay type: in vivo, late watergrass (Echinochloa oryzicola); details: amount of applied herbicide 320 g/ha
# Outline: (§3)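 Emulsion formulation, water-diluted to set dose, was put onto the flooded surface (4 cm depth, alluvial soil) the same day weeds were sown and 2.5-leaf rice transplanted. After 3 weeks at 25-30 °C under glass, each species was rated 0 (≤5% kill) to 5 (≥90% kill).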
# oval-leafed pondweed [3] = assay: Test Example 1: herbicidal activity, application before weed generation under submerged conditions (Table 16, symbol C); assay type: in vivo, oval-leafed pondweed (Monochoria vaginalis); details: amount of applied herbicide 320 g/ha
# Outline: as §3
# rice flat sedge = assay: Test Example 3: herbicidal effect by foliage application, Wagner pot (Table 18, symbol E); assay type: in vivo, rice flat sedge (Cyperus iria)
# Outline: as §2
# lambsquarters [4] = assay: Test Example 4: herbicidal effect by soil treatment (Table 19, symbol O); assay type: in vivo, lambsquarters (Chenopodium album); details: amount of applied herbicide 320 g/ha
# Outline: as §1
# velvetleaf [5] = assay: Test Example 5: herbicidal effect by foliage application, plastic box (Table 20, symbol M); assay type: in vivo, velvetleaf (Abutilon theophrasti)
# Outline: (§4)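 Plants sown in sterilized diluvial soil and grown 14 days in a greenhouse at 25° C to 30° C, then sprayed on the foliage with the compound's emulsion diluted in water to a predetermined herbicide amount. Injury to weeds and crops scored three weeks after application on a visual rating scale.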
# Japanese bulrush [6] = assay: Test Example 1: herbicidal activity, application before weed generation under submerged conditions (Table 16, symbol B); assay type: in vivo, Japanese bulrush (Schoenoplectus juncoides); details: amount of applied herbicide 320 g/ha
# Outline: as §3
# redroot pigweed [7] = assay: Test Example 5: herbicidal effect by foliage application, plastic box (Table 20, symbol N); assay type: in vivo, redroot pigweed (Amaranthus retroflexus)
# Outline: as §4
# Japanese bulrush [8] = assay: Test Example 2: herbicidal activity, application during weed generation under submerged conditions (Table 17, symbol B); assay type: in vivo, Japanese bulrush (Schoenoplectus juncoides); details: AAH 320 g/ha; application during weed generation, submerged conditions
# Outline: (§5)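 Wagner pot, alluvial soil, 4 cm flood; mixed sowing of all species; greenhouse 25° C.–30° C. Emulsifiable formulation, water-diluted to predetermined dose, applied to paddy water at 1–2 leaf stage. Effect rated at 3 wk using the earlier test's scoring criteria.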
# late watergrass [9] = assay: Test Example 2: herbicidal activity, application during weed generation under submerged conditions (Table 17, symbol A); assay type: in vivo, late watergrass (Echinochloa oryzicola); details: AAH 320 g/ha; application during weed generation, submerged conditions
# Outline: as §5
# oval-leafed pondweed [10] = assay: Test Example 2: herbicidal activity, application during weed generation under submerged conditions (Table 17, symbol C); assay type: in vivo, oval-leafed pondweed (Monochoria vaginalis); details: AAH 320 g/ha; application during weed generation, submerged conditions
# Outline: as §5
# lambsquarters [11] = assay: Test Example 5: herbicidal effect by foliage application, plastic box (Table 20, symbol O); assay type: in vivo, lambsquarters (Chenopodium album)
# Outline: as §4
# barnyard grass [12] = assay: Test Example 4: herbicidal effect by soil treatment (Table 19, symbol H); assay type: in vivo, barnyard grass (Echinochloa crus-galli); details: amount of applied herbicide 320 g/ha
# Outline: as §1
# southern crabgrass [13] = assay: Test Example 5: herbicidal effect by foliage application, plastic box (Table 20, symbol F); assay type: in vivo, southern crabgrass (Digitaria ciliaris)
# Outline: as §4
# green foxtail [14] = assay: Test Example 5: herbicidal effect by foliage application, plastic box (Table 20, symbol G); assay type: in vivo, green foxtail (Setaria viridis)
# Outline: as §4
# barnyard grass [15] = assay: Test Example 5: herbicidal effect by foliage application, plastic box (Table 20, symbol H); assay type: in vivo, barnyard grass (Echinochloa crus-galli)
# Outline: as §4
# barnyard grass [16] = assay: Test Example 3: herbicidal effect by foliage application, Wagner pot (Table 18, symbol H); assay type: in vivo, barnyard grass (Echinochloa crus-galli)
# Outline: as §2
# southern crabgrass [17] = assay: Test Example 4: herbicidal effect by soil treatment (Table 19, symbol F); assay type: in vivo, southern crabgrass (Digitaria ciliaris); details: amount of applied herbicide 320 g/ha
# Outline: as §1
# green foxtail [18] = assay: Test Example 4: herbicidal effect by soil treatment (Table 19, symbol G); assay type: in vivo, green foxtail (Setaria viridis); details: amount of applied herbicide 320 g/ha
# Outline: as §1
# redroot pigweed [19] = assay: Test Example 4: herbicidal effect by soil treatment (Table 19, symbol N); assay type: in vivo, redroot pigweed (Amaranthus retroflexus); details: amount of applied herbicide 320 g/ha
# Outline: as §1
# windgrass = assay: Test Example 5: herbicidal effect by foliage application, plastic box (Table 20, symbol L); assay type: in vivo, windgrass (Apera spica-venti); details: amount of applied herbicide 320 g/ha; foliage application after 14-day growth; evaluated three weeks after application
# Outline: as §4
# chickweed = assay: Test Example 5: herbicidal effect by foliage application, plastic box (Table 20, symbol P); assay type: in vivo, common chickweed (Stellaria media); details: amount of applied herbicide 320 g/ha; foliage application after 14-day growth; evaluated three weeks after application
# Outline: as §4
# wild oat = assay: Test Example 5: herbicidal effect by foliage application, plastic box (Table 20, symbol I); assay type: in vivo, wild oat (Avena fatua); details: amount of applied herbicide 320 g/ha; foliage application after 14-day growth; evaluated three weeks after application
# Outline: as §4
# blackgrass = assay: Test Example 5: herbicidal effect by foliage application, plastic box (Table 20, symbol J); assay type: in vivo, blackgrass (Alopecurus myosuroides); details: amount of applied herbicide 320 g/ha; foliage application after 14-day growth; evaluated three weeks after application
# Outline: as §4
# persian speedwell = assay: Test Example 5: herbicidal effect by foliage application, plastic box (Table 20, symbol R); assay type: in vivo, Persian speedwell (Veronica persica); details: amount of applied herbicide 320 g/ha; foliage application after 14-day growth; evaluated three weeks after application
# Outline: as §4
# [20] = amount of applied herbicide 320 g/ha
# [21] = foliage application, 320 g/ha, three weeks after application
# [22] = amount of applied herbicide 320 g/ha, foliage application after 14-day growth, evaluated three weeks after application
compound,measurement,setting,value
COCC[S+]([O-])c1ccc(-c2sc3ccc(F)cc3c2-c2c(O)c(C)nn(C)c2=O)cc1 (centres unmarked) [2-454],"herbicidal effect, M: velvetleaf",velvetleaf [1],3 (Herbicidal rate of 40% or more and less than 70%)
same,herbicidal effect on D: Chinese sprangletop,Chinese sprangletop; [20],2 (Herbicidal rate of 20% or more and less than 40%)
same,"Herbicidal effect, A: late watergrass",late watergrass [2],3 (Herbicidal rate of 40% or more and less than 70%)
same,"Herbicidal effect, C: oval-leafed pondweed",oval-leafed pondweed [3],0 (Herbicidal rate of 5% or less (almost no effect))
same,herbicidal effect on E: rice flat sedge,rice flat sedge; [20],5 (Herbicidal rate of 90% or more (almost completely withered))
same,"herbicidal effect, O: lambsquarters",lambsquarters [4],4 (Herbicidal rate of 70% or more and less than 90%)
same,"M: velvetleaf, herbicidal effect grade",velvetleaf [5]; [21],5 (Herbicidal rate of 90% or more (almost completely withered))
same,"Herbicidal effect, B: Japanese bulrush",Japanese bulrush [6],0 (Herbicidal rate of 5% or less (almost no effect))
same,"N: redroot pigweed, herbicidal effect grade",redroot pigweed [7]; [21],5 (Herbicidal rate of 90% or more (almost completely withered))
same,"herbicidal effect rating, B: Japanese bulrush",Japanese bulrush [8],0 (Herbicidal rate of 5% or less (almost no effect))
same,"herbicidal effect rating, A: late watergrass",late watergrass [9],2 (Herbicidal rate of 20% or more and less than 40%)
same,"herbicidal effect rating, C: oval-leafed pondweed",oval-leafed pondweed [10],0 (Herbicidal rate of 5% or less (almost no effect))
same,"O: lambsquarters, herbicidal effect grade",lambsquarters [11]; [21],5 (Herbicidal rate of 90% or more (almost completely withered))
same,"herbicidal effect, H: barnyard grass",barnyard grass [12],4 (Herbicidal rate of 70% or more and less than 90%)
same,"F: southern crabgrass, herbicidal effect grade",southern crabgrass [13]; [21],5 (Herbicidal rate of 90% or more (almost completely withered))
same,"G: green foxtail, herbicidal effect grade",green foxtail [14]; [21],5 (Herbicidal rate of 90% or more (almost completely withered))
same,"H: barnyard grass, herbicidal effect grade",barnyard grass [15]; [21],5 (Herbicidal rate of 90% or more (almost completely withered))
same,herbicidal effect on H: barnyard grass,barnyard grass [16]; [20],5 (Herbicidal rate of 90% or more (almost completely withered))
same,"herbicidal effect, F: southern crabgrass",southern crabgrass [17],5 (Herbicidal rate of 90% or more (almost completely withered))
same,"herbicidal effect, G: green foxtail",green foxtail [18],5 (Herbicidal rate of 90% or more (almost completely withered))
same,"herbicidal effect, N: redroot pigweed",redroot pigweed [19],5 (Herbicidal rate of 90% or more (almost completely withered))
CCCC(=O)Oc1c(C)nn(C)c(=O)c1-c1c(-c2ccc(C(F)(F)F)cc2)sc2cc(F)c(F)cc12 [5-008],"Herbicidal effect by foliage application, L: windgrass",windgrass,1 (Herbicidal rate of 5% or more and less than 20%)
same,herbicidal effect on Chinese sprangletop (D),Chinese sprangletop; 320 g/ha,0 (Herbicidal rate of 5% or less (almost no effect))
same,"Herbicidal effect, A: late watergrass",late watergrass [2],3 (Herbicidal rate of 40% or more and less than 70%)
same,"Herbicidal effect, C: oval-leafed pondweed",oval-leafed pondweed [3],0 (Herbicidal rate of 5% or less (almost no effect))
same,"Herbicidal effect by foliage application, P: chickweed",chickweed,4 (Herbicidal rate of 70% or more and less than 90%)
same,herbicidal effect on rice flat sedge (E),rice flat sedge; 320 g/ha,0 (Herbicidal rate of 5% or less (almost no effect))
same,"Herbicidal effect by foliage application, I: wild oat",wild oat,0 (Herbicidal rate of 5% or less (almost no effect))
same,"Herbicidal effect by foliage application, M: velvetleaf",velvetleaf [5]; [22],0 (Herbicidal rate of 5% or less (almost no effect))
same,"Herbicidal effect, B: Japanese bulrush",Japanese bulrush [6],0 (Herbicidal rate of 5% or less (almost no effect))
same,"Herbicidal effect by foliage application, N: redroot pigweed",redroot pigweed [7]; [22],3 (Herbicidal rate of 40% or more and less than 70%)
same,"herbicidal effect rating, B: Japanese bulrush",Japanese bulrush [8],0 (Herbicidal rate of 5% or less (almost no effect))
same,"herbicidal effect rating, A: late watergrass",late watergrass [9],2 (Herbicidal rate of 20% or more and less than 40%)
same,"herbicidal effect rating, C: oval-leafed pondweed",oval-leafed pondweed [10],0 (Herbicidal rate of 5% or less (almost no effect))
same,"Herbicidal effect by foliage application, J: blackgrass",blackgrass,0 (Herbicidal rate of 5% or less (almost no effect))
same,"Herbicidal effect by foliage application, O: lambsquarters",lambsquarters [11]; [22],3 (Herbicidal rate of 40% or more and less than 70%)
same,"Herbicidal effect by foliage application, F: southern crabgrass",southern crabgrass [13]; [22],0 (Herbicidal rate of 5% or less (almost no effect))
same,"Herbicidal effect by foliage application, G: green foxtail",green foxtail [14]; [22],0 (Herbicidal rate of 5% or less (almost no effect))
same,"Herbicidal effect by foliage application, H: barnyard grass",barnyard grass [15]; [22],0 (Herbicidal rate of 5% or less (almost no effect))
same,herbicidal effect on barnyard grass (H),barnyard grass [16]; 320 g/ha,4 (Herbicidal rate of 70% or more and less than 90%)
same,"Herbicidal effect by foliage application, R: persian speedwell",persian speedwell,3 (Herbicidal rate of 40% or more and less than 70%)

# From patent publication US20230085307A1, “PYRIDAZINONE COMPOUND AND HERBICIDE” (NISSAN CHEMICAL CORPORATION, priority 2019, published 2023)
